Assay [1] deals with T1, Cav2.3 (Homo sapiens, UniProt Q15878). The assay is described as follows: Human Cav2.3 channel calcium-influx assay. Type of assay: cell-based. The note with it: Fluo8 fluorescence, HEK-293 T-Rex/Kir2.1/Cav2.3e cells, without pluronic acid, read-out: Cav2.3 (pIC50) (converted). The method, boiled down:
(§1)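 Signal = peak fluorescence (5–130 s) minus baseline (1–2 s), normalized to neutral (0) and inhibitor (−100) controls as % effect. Depolarization used final 20 mM KCl, 130 mM NaCl, 2 mM CaCl2, after 3 min RT compound exposure (30 μM top, half-log, 8 points, 0.3% DMSO) in doxycycline-induced HEK-293 T-Rex/Kir2.1/Cav2.3e-β4-α2δ1 cells with Fluo8 NW.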

Assay [2] concerns the target T1, Cav2.3. Description: Whole-cell patch clamp assay (QPatch) in HEK-293 T-Rex/Kir2.1/Cav2.3e-β4-α2δ1 cells. Type of assay: cell-based. The note with it: QPatch 16X, room temperature, mean ± S.E, read-out: Cav2.3 (pIC50) (converted). The protocol:
HEK-293 T-Rex/Kir2.1/Cav2.3e-β4-α2δ1 cells were seeded 96 hours before experiment and doxycycline at 0.2 μg/mL was added 24 hours before experiment. Just before the experiments cells were washed twice with D-PBS w/o Ca^2+/Mg^2+ and gently detached from the flask with Detachin. Cells were then re-suspended in the suspension solution (25 mL EX-CELL ACF CHO medium; 0.25 mL of 100× Penicillin/Streptomycin) and placed on the Automated Patch-clamp platform (QPatch 16X).
Standard whole-cell voltage clamp experiments were performed at room temperature using the single hole technology and the following intracellular and extracellular solutions (ICS and ECS, respectively) were used. ICS (mM): CsF 60, CsCl 50, NaCl 10, EGTA 20, BAPTA 5, HEPES 10, NaGTP 0.3, MgATP 5 (pH 7.2; ECS (mM): NMDG-Cl 120, BaCl2 20, HEPES 10, EGTA 7 (pH 7.4). After establishment of the seal and the passage in the whole-cell configuration, the Cav2.3 dependent current was evoked by challenging the cells with the following voltage protocol: the plasma membrane was held at −80 mV then a 50 ms-long depolarizing pulse at 0 mV, followed by a 50 ms-long hyperpolarizing pulse at −100 mV were applied and finally the plasma membrane was held back to −80 mV. This voltage protocol was applied every 10 seconds. Cav2.3 dependent current was first measured in control condition (vehicle, 0.1% DMSO), in the presence of increasing concentration of the compound under investigation and finally SNX 482 was added to fully block any R-type Cav2.3 dependent current.
For data collection, the Sophion proprietary software was used while the analysis was performed off-line using Excel and GraphPad Prism. The inward current (Area Under Curve) measured during each depolarizing pulse was normalized to cell membrane capacitance (Cm) to obtain the average inward current density in each condition (control, compound under investigation and SNX 482). Then, the inhibitory effect of the compound under investigation was evaluated as % of the remaining inward current, normalized to the internal control. […] All data were expressed as mean±S.E
A general note: In patch-clamp work, channel activity is measured electrically.

The test system of assay [3] is Human Cav2.3 channel. Description: Human Cav2.3 channel calcium-influx assay. Type of assay: cell-based. The following applies: Fluo8 fluorescence, HEK-293 T-Rex/Kir2.1/Cav2.3e cells, without pluronic acid. The method, boiled down:
as §1

Assay [4] concerns MES model of epilepsy. The assay is described as follows: Maximal electroshock stimulation model (MES) in mouse. The following applies: 1.5 mg/kg, oral administration. Type of assay: in vivo. The protocol: Compounds of the invention were tested in an in vivo model of epilepsy, the MES model in mouse, according to the method described in Kehne et al, Neurochemistry Research 42:1894-1903 (2017) 1 https://doi.org/10.1007/s11064-017-2275-z.
In general terms: In the maximal electroshock model the usual endpoint is tonic extension of the hind limbs.

In assay [5] the target is R-type calcium current in substantia nigra dopamine neurons (Mus musculus (Mouse), UniProt Q61290). The assay is described as follows: Ex vivo whole cell patch clamp in substantia nigra dopamine neurons, mouse brain slice. The note with it: concentrations of 10 μM. Type of assay: cell-based. The protocol:
Compounds of the invention were tested on R-type calcium current with whole cell patch clamp electrophysiology in substantia nigra dopamine neurons in an ex vivo brain slice preparation according to the methods described in Siller et al., Elife, 11:e67464 (2022) https://doi.org/i0.7554/eLife.67464.

The structures appear in SMILES notation.

T1 sequence (Q15878 whole entry, looked up): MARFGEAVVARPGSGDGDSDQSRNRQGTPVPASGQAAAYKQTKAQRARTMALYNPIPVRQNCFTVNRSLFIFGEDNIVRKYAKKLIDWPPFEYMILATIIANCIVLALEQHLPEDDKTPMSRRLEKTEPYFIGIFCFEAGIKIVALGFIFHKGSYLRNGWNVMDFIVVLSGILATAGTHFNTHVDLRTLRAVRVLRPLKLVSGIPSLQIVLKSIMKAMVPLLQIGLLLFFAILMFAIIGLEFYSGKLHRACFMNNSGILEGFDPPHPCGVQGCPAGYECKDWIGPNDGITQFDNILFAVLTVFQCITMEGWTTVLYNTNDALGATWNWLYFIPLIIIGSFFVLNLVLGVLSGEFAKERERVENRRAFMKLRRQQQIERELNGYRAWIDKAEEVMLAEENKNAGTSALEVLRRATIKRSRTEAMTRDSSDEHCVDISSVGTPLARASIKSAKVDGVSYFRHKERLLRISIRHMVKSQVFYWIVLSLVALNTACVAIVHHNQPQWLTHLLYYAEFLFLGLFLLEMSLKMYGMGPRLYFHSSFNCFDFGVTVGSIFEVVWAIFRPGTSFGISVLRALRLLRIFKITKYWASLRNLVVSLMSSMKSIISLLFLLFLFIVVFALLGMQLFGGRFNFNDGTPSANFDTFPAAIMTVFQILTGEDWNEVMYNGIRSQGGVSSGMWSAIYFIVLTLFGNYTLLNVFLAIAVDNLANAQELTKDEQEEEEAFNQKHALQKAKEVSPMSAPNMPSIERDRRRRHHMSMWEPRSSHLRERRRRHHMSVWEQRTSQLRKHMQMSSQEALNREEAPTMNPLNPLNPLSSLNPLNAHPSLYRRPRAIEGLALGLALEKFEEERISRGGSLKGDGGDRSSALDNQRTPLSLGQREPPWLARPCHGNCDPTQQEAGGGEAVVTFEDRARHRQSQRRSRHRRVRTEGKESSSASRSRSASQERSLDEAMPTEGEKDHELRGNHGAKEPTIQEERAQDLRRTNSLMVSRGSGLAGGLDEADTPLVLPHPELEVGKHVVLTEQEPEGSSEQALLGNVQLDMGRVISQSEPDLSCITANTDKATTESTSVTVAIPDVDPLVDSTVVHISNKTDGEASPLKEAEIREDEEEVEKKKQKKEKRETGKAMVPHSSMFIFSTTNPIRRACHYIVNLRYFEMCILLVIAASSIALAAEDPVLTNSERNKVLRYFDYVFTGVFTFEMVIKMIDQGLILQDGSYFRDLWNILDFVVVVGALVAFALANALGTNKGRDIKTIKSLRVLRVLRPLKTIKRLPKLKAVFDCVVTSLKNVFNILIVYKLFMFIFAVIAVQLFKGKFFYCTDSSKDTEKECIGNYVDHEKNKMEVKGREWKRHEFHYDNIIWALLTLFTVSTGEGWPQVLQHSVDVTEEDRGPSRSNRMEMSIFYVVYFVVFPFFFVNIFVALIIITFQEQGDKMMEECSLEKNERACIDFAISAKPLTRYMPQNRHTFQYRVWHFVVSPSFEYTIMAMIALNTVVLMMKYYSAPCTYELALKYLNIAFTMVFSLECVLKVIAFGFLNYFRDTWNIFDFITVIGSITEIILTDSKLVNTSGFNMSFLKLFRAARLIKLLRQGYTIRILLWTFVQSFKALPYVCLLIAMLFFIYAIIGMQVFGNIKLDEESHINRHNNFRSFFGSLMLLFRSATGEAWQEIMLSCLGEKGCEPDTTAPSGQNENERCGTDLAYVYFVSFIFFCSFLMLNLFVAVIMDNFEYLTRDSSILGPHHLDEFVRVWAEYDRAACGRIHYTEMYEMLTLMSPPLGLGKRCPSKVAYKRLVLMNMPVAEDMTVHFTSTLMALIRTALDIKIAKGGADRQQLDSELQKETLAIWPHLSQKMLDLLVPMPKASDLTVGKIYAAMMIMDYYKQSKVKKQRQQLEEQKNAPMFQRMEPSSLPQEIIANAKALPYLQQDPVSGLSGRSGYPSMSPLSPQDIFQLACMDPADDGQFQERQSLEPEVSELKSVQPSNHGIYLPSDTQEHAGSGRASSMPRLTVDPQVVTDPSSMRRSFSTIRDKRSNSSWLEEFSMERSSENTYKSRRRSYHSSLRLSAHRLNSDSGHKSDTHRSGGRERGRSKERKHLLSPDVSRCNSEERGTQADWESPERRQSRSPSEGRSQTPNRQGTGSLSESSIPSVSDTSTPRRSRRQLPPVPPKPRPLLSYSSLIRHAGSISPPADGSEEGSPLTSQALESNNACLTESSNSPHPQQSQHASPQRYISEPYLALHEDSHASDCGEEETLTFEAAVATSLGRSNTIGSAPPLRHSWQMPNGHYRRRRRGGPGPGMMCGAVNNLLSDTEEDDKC
Chain of R-type calcium current in substantia nigra dopamine neurons (Q61290 whole entry): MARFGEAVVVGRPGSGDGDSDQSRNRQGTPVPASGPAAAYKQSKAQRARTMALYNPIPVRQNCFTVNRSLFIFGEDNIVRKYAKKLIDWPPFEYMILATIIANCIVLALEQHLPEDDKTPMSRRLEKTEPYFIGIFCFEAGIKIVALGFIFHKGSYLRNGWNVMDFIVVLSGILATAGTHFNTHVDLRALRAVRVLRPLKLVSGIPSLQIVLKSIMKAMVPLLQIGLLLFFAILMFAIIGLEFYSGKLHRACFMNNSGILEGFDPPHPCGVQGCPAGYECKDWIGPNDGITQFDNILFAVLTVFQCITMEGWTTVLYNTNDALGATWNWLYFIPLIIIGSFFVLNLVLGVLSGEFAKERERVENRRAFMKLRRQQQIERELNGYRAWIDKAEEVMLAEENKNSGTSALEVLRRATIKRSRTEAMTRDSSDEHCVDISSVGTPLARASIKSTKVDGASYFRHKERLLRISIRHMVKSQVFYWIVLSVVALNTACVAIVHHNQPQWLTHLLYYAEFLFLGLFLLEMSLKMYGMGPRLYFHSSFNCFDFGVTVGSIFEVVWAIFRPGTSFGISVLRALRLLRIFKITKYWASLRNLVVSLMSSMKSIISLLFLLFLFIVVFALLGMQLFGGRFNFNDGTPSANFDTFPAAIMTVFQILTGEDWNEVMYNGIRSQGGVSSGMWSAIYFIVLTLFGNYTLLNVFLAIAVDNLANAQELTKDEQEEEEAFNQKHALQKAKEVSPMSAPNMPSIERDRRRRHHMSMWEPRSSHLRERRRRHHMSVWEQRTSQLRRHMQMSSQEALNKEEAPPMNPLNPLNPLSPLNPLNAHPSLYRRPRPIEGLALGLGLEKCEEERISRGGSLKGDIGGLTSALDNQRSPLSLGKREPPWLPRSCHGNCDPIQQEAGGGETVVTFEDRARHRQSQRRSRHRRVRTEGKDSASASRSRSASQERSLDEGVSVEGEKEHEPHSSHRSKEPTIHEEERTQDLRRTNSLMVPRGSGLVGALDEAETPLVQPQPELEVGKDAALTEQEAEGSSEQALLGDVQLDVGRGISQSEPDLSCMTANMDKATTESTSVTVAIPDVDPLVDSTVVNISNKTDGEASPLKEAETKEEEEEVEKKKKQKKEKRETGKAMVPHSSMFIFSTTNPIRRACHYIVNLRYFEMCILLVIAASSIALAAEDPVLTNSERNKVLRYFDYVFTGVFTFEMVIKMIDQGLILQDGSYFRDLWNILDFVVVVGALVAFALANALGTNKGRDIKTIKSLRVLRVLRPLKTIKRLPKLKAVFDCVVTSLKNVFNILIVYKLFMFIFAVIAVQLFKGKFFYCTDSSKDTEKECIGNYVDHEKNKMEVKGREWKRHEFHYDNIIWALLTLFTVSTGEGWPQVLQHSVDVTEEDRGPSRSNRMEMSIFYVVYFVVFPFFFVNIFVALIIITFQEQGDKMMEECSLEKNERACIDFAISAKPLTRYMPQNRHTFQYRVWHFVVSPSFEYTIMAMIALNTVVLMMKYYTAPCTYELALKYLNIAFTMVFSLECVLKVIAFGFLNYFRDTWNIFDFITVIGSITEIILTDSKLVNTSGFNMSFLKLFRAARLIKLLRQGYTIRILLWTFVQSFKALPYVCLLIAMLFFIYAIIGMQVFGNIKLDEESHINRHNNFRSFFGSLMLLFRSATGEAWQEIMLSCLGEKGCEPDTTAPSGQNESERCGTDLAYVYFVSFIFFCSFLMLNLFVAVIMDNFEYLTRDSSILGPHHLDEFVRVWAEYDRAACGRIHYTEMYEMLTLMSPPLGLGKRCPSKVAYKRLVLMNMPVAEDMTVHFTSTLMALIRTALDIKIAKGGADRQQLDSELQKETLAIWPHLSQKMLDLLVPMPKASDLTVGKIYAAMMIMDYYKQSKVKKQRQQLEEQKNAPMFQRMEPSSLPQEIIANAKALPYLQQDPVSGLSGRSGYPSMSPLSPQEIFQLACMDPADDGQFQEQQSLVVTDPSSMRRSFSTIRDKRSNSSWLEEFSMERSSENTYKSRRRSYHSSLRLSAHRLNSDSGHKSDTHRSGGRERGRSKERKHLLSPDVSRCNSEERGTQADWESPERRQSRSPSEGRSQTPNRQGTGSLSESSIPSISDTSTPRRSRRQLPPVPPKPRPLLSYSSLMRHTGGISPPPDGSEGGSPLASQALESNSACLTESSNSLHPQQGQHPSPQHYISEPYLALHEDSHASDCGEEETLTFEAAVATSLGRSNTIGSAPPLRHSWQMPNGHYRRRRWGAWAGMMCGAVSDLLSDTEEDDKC

`CCN(C(c1ccc(F)cc1)C(F)(F)F)S(=O)(=O)CC1CCOCC1` (stereo not shown) [Example 20, N-ethyl-1-(tetrahydro-2H-pyran-4-yl)-N-(2,2,2-trifluoro-1-(4-fluorophenyl)ethyl)methanesulfonamide]: the IC50 in assay [1] is 794 nM; in assay [2], 708 nM.

In the case of `CCN([C@H](c1ccc(F)cc1)C(F)(F)F)S(=O)(=O)c1cncc(C#N)c1` [Example 35, (R)-5-cyano-N-ethyl-N-(2,2,2-trifluoro-1-(4-fluorophenyl)ethyl)pyridine-3-sulfonamide], the “Cav2.3 (pIC50)” value in assay [3] was 7.87. In assay [4], the “activity in the MES model” value was “active”. In addition, the “activity blocking R-type calcium current” value in assay [5] was “active”. Further, in assay [2], the IC50 was 46.8 nM.

As for `CN([C@H](c1ccc(C(F)(F)F)cc1)C(F)(F)F)S(=O)(=O)c1cncc(C#N)c1` [Example 68, (R)-5-Cyano-N-methyl-N-(2,2,2-trifluoro-1-(4-(trifluoromethyl)phenyl)ethyl)pyridine-3-sulfonamide], the IC50 in assay [1] is 35.5 nM; in assay [2] it was 72.4 nM.

In the case of `CN([C@H](c1ccc(Cl)cc1)C(F)(F)F)S(=O)(=O)c1cncc(C#N)c1` [Example 171, (R)—N-(1-(4-chlorophenyl)-2,2,2-trifluoroethyl)-5-cyano-N-methylpyridine-3-sulfonamide], the IC50 in assay [1] is 25.7 nM; in assay [2] it was 132 nM.

In the case of `CN([C@H](c1ccc(Cl)cc1)C(F)(F)F)S(=O)(=O)c1ccc2nccn2c1` [Example 178, (R)—N-(1-(4-chlorophenyl)-2,2,2-trifluoroethyl)-N-methylimidazo[1,2-a]pyridine-6-sulfonamide], the IC50 was 178 nM in assay [1] and 380 nM in assay [2].

`CN([C@H](c1ccc(Cl)cc1)C(F)(F)F)S(=O)(=O)c1ccn2ncnc2c1` [Example 191, (R)—N-(1-(4-chlorophenyl)-2,2,2-trifluoroethyl)-N-methyl-[1,2,4]triazolo[1,5-a]pyridine-7-sulfonamide]: the IC50 in assay [1] was 145 nM; in assay [2], 457 nM.

For `CN([C@H](c1ccc(Cl)cc1)C(F)(F)F)S(=O)(=O)c1cncc(F)c1` [Example 220, (R)—N-(1-(4-chlorophenyl)-2,2,2-trifluoroethyl)-5-fluoro-N-methylpyridine-3-sulfonamide], the IC50 in assay [1] is 30.2 nM; in assay [2], 141 nM.

The record behind these values is patent US20250115569A1, “SULFONAMIDE COMPOUNDS FOR THE TREATMENT OF NEUROLOGICAL CONDITIONS” (LARIO THERAPEUTICS LIMITED, priority 2021, published 2025).
